Experimental data: patent publication US9382229B2, “Compounds and methods of use thereof for treating neurodegenerative disorders” (THE JOHNS HOPKINS UNIVERSITY, priority 2011, dated 2016)

How the values were obtained:
[1] = system: primary murine retinal ganglion cells (RGCs); assay: RGC-based high content screen of small molecule libraries (CellTiter-Glo ATP, PI/Hoechst staining); type: cell-based, mouse; details: purified primary murine RGCs, CellTiter-Glo or PI/Hoechst
Experimental: Survival of purified mouse RGCs with increasing concentrations of VX680 (tozasertib) was determined by measuring cellular ATP levels with CellTiter-Glo (CTG), or by combined staining with Propidium iodide (PI) and Hoescht (Hoe) (PI/Hoe) (FIG. 8A). The efficacy in promoting primary mouse RGC survival by VX680 and NCGC00188382-01 was quantified and compared to sunitinib (FIGS. 8B and 8C).

[2] = system: retinal ganglion cells (RGCs); assay: Time course of RGC cell survival with murine purified RGCs, up to 6 days in vitro; type: cell-based, mouse; details: for RGC survival: 6 days in vitro (DIV6), percent survival compared to zero time per FIG. 2 legend, Mean±S.E.M.
Experimental: FIG. 2 is a comparison of the relative efficacy of sunitinib, VX680 and neurotrophic factors in promoting RGC survival in vitro. […] Purified mouse RGCs were cultured in the presence of sunitinib (0.5 or 1 μM), VX680 (1 or 2 μM), and a combination of BDNF, CNTF, and GDNF, for up to 6 days. RGC survival (percent survival compared to zero time) was determined at the indicated day in vitro (DIV) (0, 1, 2, 3, and 6 DIV). Error bars: Mean±S.E.M.;
FIG. 3 is representative images showing the RGCs from the study described in FIG. 2;
For comparison, data from vehicle and BDNF/CNTF/GDNF also are shown.

[3] = system: retinal ganglion cells (RGCs); assay: RGC cell survival assay with murine purified RGCs, 3 days in culture (Calcein AM/Hoechst/Ethidium homodimer staining, Cellomics imager); type: cell-based, mouse; details: for RGC survival: purified mouse RGCs cultured 3 days with 25-5000 nM compound
Experimental: RGCs were purified from 2-5 day-old C57BL/6 mice, and cultured for 3 days in a media containing Neurobasal and B27, with or without 25-5000 nM of sunitinib (sun) or VX680. RGC survival was determined by combined staining with Calcein A M, Hoescht, and Ethidium homodimer. Images were acquired and analyzed with a Cellomics imager. Error bars: Mean±S.E.M.;
(§1) Purified mouse RGCs were cultured in the presence of sunitinib (0.5 μM), 25-5000 nM of VX680, JHU611 or JHU612, for 3 days. RGC survival was determined by combined staining with Calcein A M, Hoescht, and Ethidium homodimer. Images were acquired and analyzed with a Cellomics imager. Error bars: Mean±S.E.M.;
as §1, with “JHU609” for “JHU611”, “JHU610,” for “JHU612,”
as §1, with “JHU607” for “JHU611”, “JHU608,” for “JHU612,”, “days. The percentages of” for “days.”
RGCs were cultured with the indicated drug at the indicated concentration, cultured, and survival was monitored using a calcein AM assay with a Cellomics VTI imager (Thermo Scientific, 100 Technology Drive, Pittsburgh, Pa.) and image analysis software.

hippocampal neurons = assay: Hippocampal neuron survival against 3-nitropropionic acid (3-NP) induced cell death, MTT assay; type: cell-based; details: cell death induced by 3-NP, VX680 at 0.5, 1, 5 and 10 μM
Experimental: Cell death of hippocampal neurons was induced by the mitochondrial toxin 3-nitropropionic acid (3-NP). VX680 was added to the media at concentrations of 0.5 μM, 1 μM, 5 μM and 10 μM. Cell survival was determined using a MTT assay. The effect of VX680 on cell survival was analyzed with the student t-test. Error bars: Mean±S.D.; and […]

**Q.** CC(NCc1ccc2c(c1)nc(NC(=O)c1ccc(-c3cn[nH]c3)s1)n2CC(C)(C)O)C(C)(C)C (stereo not drawn) [NCGC00188382-01] was tested. Which “RGC survival / neuroprotection in high content screen” value (“RGC survival / neuroprotection” for short) [1] did it give?
**A.** The value was “neuroprotective compounds”.

**Q.** What does the source list for CCN(CC)CCNC(=O)c1c(C)[nH]c(/C=C2\C(=O)Nc3ccc(F)cc32)c1C [Sunitinib, sunitinib]?
**A.** RGC survival ([2]; 0.5 μM): 23.73 ± 1.17; RGC survival ([2]; 1 μM): 26.37 ± 1.61

**Q.** With Cc1cc(Nc2nc(Sc3ccc(NC(=O)C4CC4)cc3)nc(N3CCCNCC3)n2)n[nH]1 [JHU612, N-(4-(4-(1,4-diazepan-1-yl)-6-(5-methyl-1H-pyrazol-3-ylamino)-1,3,5-triazin-2-ylthio)phenyl)cyclopropanecarboxamide] as the compound, how does the RGC survival [3] read?
**A.** The RGC survival was “promote RGC survival”.

**Q.** Which “RGC survival” value ([2]; 1 μM) does the source give for Cc1cc(Nc2cc(N3CCN(C)CC3)nc(Sc3ccc(NC(=O)C4CC4)cc3)n2)[nH]n1 [VX-680, Tozasertib] here?
**A.** The value was 49.66 ± 2.27.

**Q.** And the “RGC survival” value ([2]; 2 μM)?
**A.** Its value is 60.32 ± 2.47.

**Q.** And the “neuroprotective activity compared with sunitinib and BDNF/CNTF/GDNF combination” value ([2]; FIG. 2, time course 0-6 DIV)?
**A.** The value was “exceeds that of sunitinib and a combination of brain derived neurotrophic factor (BDNF) ciliary neurotrophic factor (CNTF), and glial-derived neurotrophic factor (GDNF)”.

**Q.** What about the “RGC survival / neuroprotection” value [1] of the same compound?
**A.** Its value is “could promote the survival of cultured RGCs”.

**Q.** What about the “RGC survival / neuroprotection” value ([1]; listed as VX680) of the same compound?
**A.** The value was “neuroprotective compounds”.

**Q.** And the “survival of hippocampal neurons” value (hippocampal neurons)?
**A.** Its value is “promotes the survival of hippocampal neurons against mitochondrial injury and oxidative stress”.

**Q.** What about the “therapeutic window compared with sunitinib” value ([3]; FIG. 1, murine purified RGCs) of the same compound?
**A.** The value was “wider therapeutic window”.

**Q.** What about the “cell survival promoting activity compared with sunitinib” value ([3]; FIG. 1, murine purified RGCs, calcein AM assay, sunitinib as positive control) of the same compound?
**A.** Its value is “more potent cell survival promoting activity than sunitinib”.

**Q.** And the RGC survival [3]?
**A.** Its RGC survival is “promotes retinal ganglion cell (RGC) survival in vitro”.

**Q.** Which RGC survival [3] does the source give for Cc1cc(Nc2nc(Sc3ccc(NC(=O)C4CC4)cc3)nc(N3CCC(N4CCCC4)CC3)n2)n[nH]1 [JHU610, N-(4-(4-(5-methyl-1H-pyrazol-3-ylamino)-6-(4-(pyrrolidin-1-yl)piperidin-1-yl)-1,3,5-triazin-2-ylthio)phenyl)cyclopropanecarboxamide] here?
**A.** The RGC survival was “promote RGC survival”.

**Q.** For Cc1cc(Nc2nc(Sc3ccc(NC(=O)C4CC4)cc3)nc(N3CCOCC3)n2)n[nH]1 [JHU609, N-(4-(4-(5-methyl-1H-pyrazol-3-ylamino)-6-morpholino-1,3,5-triazin-2-ylthio)phenyl)cyclopropanecarboxamide], which RGC survival [3] is on record?
**A.** Its RGC survival is “promote RGC survival”.

**Q.** For Cc1cc(Nc2nc(Cl)nc(Sc3ccc(NC(=O)C4CC4)cc3)n2)n[nH]1 [JHU607, N-(4-(4-chloro-6-(5-methyl-1H-pyrazol-3-ylamino)-1,3,5-triazin-2-ylthio)phenyl)cyclopropanecarboxamide], which RGC survival [3] is on record?
**A.** Its RGC survival is “promote RGC survival”.

**Q.** Which RGC survival [3] does the source give for Cc1cc(Nc2nc(Sc3ccc(NC(=O)C4CC4)cc3)nc(N3CCC(O)CC3)n2)n[nH]1 [JHU611, N-(4-(4-(4-hydroxypiperidin-1-yl)-6-(5-methyl-1H-pyrazol-3-ylamino)-1,3,5-triazin-2-ylthio)phenyl)cyclopropanecarboxamide] here?
**A.** The RGC survival was “promote RGC survival”.

**Q.** With Cc1cc(Nc2nc(Sc3ccc(NC(=O)C4CC4)cc3)nc(N3CCNCC3)n2)n[nH]1 [JHU608, N-(4-(4-(5-methyl-1H-pyrazol-3-ylamino)-6-(piperazin-1-yl)-1,3,5-triazin-2-ylthio)phenyl)cyclopropanecarboxamide] as the compound, how does the RGC survival [3] read?
**A.** The RGC survival was “promote RGC survival”.
